Data reported in patent publication US9242984B2, “Pyrazolyl derivatives as Syk inhibitors” (Merck Sharp & Dohme Corp., priority 2012, dated 2016).
Read-outs that look alike come from different tables or passages of the source.

Target: T1, recombinant human Syk (GST-hSyk fusion protein) (Homo sapiens, UniProt P43405)
T1 construct: purchased Carna Biosciences 08-176
Assay: Homogeneous Time-Resolved Fluorescence (HTRF) assay for the recombinant human Syk enzyme
Format: biochemical
Conditions: 10-dose titration, 25 μM ATP
Outline: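 IC50 came from a four-parameter fit over ten doses, 10 μM to 0.508 nM, with HTRF read-out (Eu-anti-pTyr antibody, SA-APC, EDTA stop, 30 min). The enzyme, 5 pM GST-hSyk, met compound for 10 min, then phosphorylated 250 nM biotin-peptide with 25 μM ATP and 5 mM Mg for 45 min at room temperature, pH 7.5.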

[1] = IC50 class, read-out: rhSYK Activity

Compound	IC50 (read-out: rhSYK IC50) [nM]	IC50 [1] [nM]
Cc1cc(Nc2nccc(C(F)(F)F)n2)cc(-c2cnn(CC3CN(C)C(=O)O3)c2)c1 (single isomer, unassigned) [Example 3.1, 3-methyl-5-{[4-(3-methyl-5-{[4-(trifluoromethyl)pyrimidin-2-yl]amino}phenyl)-1H-pyrazol-1-yl]methyl}-1,3-oxazolidin-2-one]	31.2	≤ 100
Cc1cc(Nc2cc(C(F)F)ccn2)nc(-c2cnn(C(C)C3CNC(=O)C3)c2)c1 (stereo not shown) [Example 1.63, 4-{1-[4-(6-{[4-(difluoromethyl)pyridin-2-yl]amino}-4-methylpyridin-2-yl)-1H-pyrazol-1-yl]ethyl}pyrrolidin-2-one]	–	≤ 100
CCC(C(=O)O)n1cc(-c2cc(C)cc(Nc3nccc(C(F)(F)F)n3)c2)cn1 (stereo not shown) [Example 3.34, 2-[4-(3-methyl-5-{[4-(trifluoromethyl)pyrimidin-2-yl]amino}-phenyl)-1H-pyrazol-1-yl]butanoic acid]	–	≤ 100
CCOC(=O)CCn1cc(-c2cccc(Nc3cc(C)ccn3)n2)cn1 [Example 1.23]	–	100 to 1000
Cc1cc(Nc2nccc(C(F)(F)F)n2)cc(-c2cnn(C[C@@H]3OC(=O)N[C@H]3C)c2)c1 (single isomer, unassigned) [Example 23.1]	1.2	≤ 100
4-{[4-(6-{[4-(difluoromethyl)pyridin-2-yl]amino}-4-methylpyridin-2-yl)-1H-pyrazol-1-yl)methyl}pyrrolidin-2-one [Example 1.37]	–	≤ 100
Cc1cc(Nc2nccc(C(F)(F)F)n2)cc(-c2cnn([C@@H](C)[C@](C)(O)CO)c2)c1 (single isomer, unassigned) [Example 21.10, 2-methyl-3-[4-(3-methyl-5-{[4-(trifluoromethyl)pyrimidin-2-yl]amino}phenyl)-1H-pyrazol-1-yl]butane-1,2-diol]	–	≤ 100
Cc1cc(Nc2nccc(C(C)(F)F)n2)cc(-c2cnn(CC3OC(=O)NC3(C)C)c2)c1 (stereo not shown) [Example 3.101, 5-{[4-(3-{[4-(1,1-difluoroethyl)pyrimidin-2-yl]amino}-5-methylphenyl)-1H-pyrazol-1-yl]methyl}-4,4-dimethyl-1,3-oxazolidin-2-one]	–	≤ 100
Cc1cc(Nc2nccc(C(F)(F)F)n2)cc(-c2cnn(C[C@@H](O)CO)c2)c1 [Example 3.41, (2R)-3-[4-(3-methyl-5-{[4-(trifluoromethyl)pyrimidin-2-yl]amino}-phenyl)-1H-pyrazol-1-yl]propane-1,2-diol]	–	≤ 100
Cc1cc(Nc2nccc(C3CC3)n2)cc(-c2cnn(C[C@H](O)C(=O)O)c2)c1 [Example 11.5, (2S)-3-(4-{3-[(4-cyclopropylpyrimidin-2-yl)amino]-5-methyl-phenyl}-1H-pyrazol-1-yl)-2-hydroxy-propanoic acid]	–	≤ 100
Cc1cc(Nc2nccc(C(F)F)n2)cc(-c2cnn(CC3CC(=O)NC3=O)c2)c1 (stereo not shown) [Example 2.71, 3-{[4-(3-{[4-(difluoromethyl)pyrimidin-2-yl]amino}-5-methylphenyl)-1H-pyrazol-1-yl]methyl}pyrrolidine-2,5-dione]	–	≤ 100
COc1ccnc(Nc2cc(C)cc(-c3cnn(CC4CNC(=O)O4)c3)c2)n1 (stereo not shown) [Example 2.21, 5-[(4-{3-[(4-methoxypyrimidin-2-yl)amino]-5-methylphenyl}-1H-pyrazol-1-yl)methyl]-1,3-oxazolidin-2-one]	–	≤ 100
Cc1cc(Nc2nccc(C(F)(F)F)n2)cc(-c2cnn(CC(O)COc3ccccc3)c2)c1 (stereo not shown) [Example 5.8, 1-[4-(3-methyl-5-{[4-(trifluoro-methyl)pyrimidin-2-yl]amino}-phenyl)-1H-pyrazol-1-yl]-3-phenoxypropan-2-ol]	–	100 to 1000
Cc1cc(Nc2cc(C)c(Cl)cn2)nc(-c2cnn(CCC(=O)O)c2)c1 [Example 1.27, 3-(4-{6-[(5-chloro-4-methylpyridin-2-yl)amino]-4-methylpyridin-2-yl}-1H-pyrazol-1-yl)propanoic acid]	–	100 to 1000
Cc1ccnc(Nc2cccc(-n3cc(CCC(=O)O)cn3)n2)c1 [Example 18.2, 3-(1-{6-[(4-methylpyridin-2-yl)amino]pyridin-2-yl}-1H-pyrazol-4-yl)propanoic acid]	–	100 to 1000
Cc1cc(Nc2nccc(C(F)(F)F)n2)cc(-c2cnn(CC3(O)CCN(CC(=O)O)CC3)c2)c1 [Example 12.15, (4-hydroxy-4-{[4-(3-methyl-5-{[4-(trifluoromethyl)-pyrimidin-2-yl]amino}-phenyl)-1H-pyrazol-1-yl]methyl}piperidin-1-yl)acetic acid]	–	≤ 100
COC(=O)c1ccc(C(O)Cn2cc(-c3cc(C)cc(Nc4nccc(C(F)(F)F)n4)c3)cn2)cc1 (stereo not shown) [Example 3.54, methyl 4-{1-hydroxy-2-[4-(3-methyl-5-{[4-(trifluoromethyl)pyrimidin-2-yl]amino}phenyl)-1H-pyrazol-1-yl]ethyl}benzoate]	–	≤ 100

Compound	IC50 (read-out: rhSYK IC50) [nM]	IC50 [1] [nM]
Cc1cc(Nc2nccc(C(F)(F)F)n2)cc(-c2cc(C(F)(F)F)nn2C)c1 [Example 1.10, N-{3-methyl-5-[1-methyl-3-(trifluoromethyl)-1H-pyrazol-5-yl]phenyl}-4-(trifluoromethyl)pyrimidin-2-amine]	–	1000 to 10000
Cc1cc(Nc2nccc(C(F)(F)F)n2)cc(-c2cnn(C[C@H](O)C(N)=O)c2)c1 [Example 7.4, (2S)-2-hydroxy-3-[4-(3-methyl-5-{[4-(trifluorometh-yl)pyrimidin-2-yl]amino}-phenyl)-1H-pyrazol-1-yl]propanamide]	–	≤ 100
Cc1cc(Nc2nccc(C(F)(F)F)n2)cc(-c2cnn(CC3(O)CCCOC3)c2)c1 (stereo not shown) [Example 12.11, 3-{[4-(3-methyl-5-{[4-(trifluoromethyl)pyrimidin-2-yl]amino}phenyl)-1H-pyrazol-1-yl]methyl}-tetrahydro-2H-pyran-3-ol]	–	≤ 100
Cc1cc(Nc2nccc(OC(C)C)n2)cc(-c2cnn(C[C@H](O)C(N)=O)c2)c1 [Example 6.6, (2S)-2-hydroxy-3-[4-(3-methyl-5-{[4-(1-methyl-ethoxy)pyrimidin-2-yl]amino}-phenyl)-1H-pyrazol-1-yl]-propanamide]	–	≤ 100
Cc1cc(Nc2cc(C(F)(F)F)ccn2)nc(-c2cnn(CC(C)(O)CO)c2)c1 (stereo not shown) [Example 21.5, 2-methyl-3-[4-(4-methyl-6-{[4-(trifluoromethyl)pyridin-2-yl]amino}pyridin-2-yl)-1H-pyrazol-1-yl]propane-1,2-diol]	–	≤ 100
Cc1cc(Nc2nccc(C(F)(F)F)n2)cc(-c2cnn(CC3CC3)c2)c1 [Example 3.21, N-{3-[1-(cyclopropylmethyl)-1H-pyrazol-4-yl]-5-methylphenyl}-4-(trifluoromethyl)pyrimidin-2-amine]	–	≤ 100
Cc1cc(Nc2nccc(C(F)(F)F)n2)cc(-c2cnn(CC(O)CO)c2)c1 (racemic) [Example 5.15, 3-[4-(3-methyl-5-{[4-(trifluoromethyl)-pyrimidin-2-yl]amino}-phenyl)-1H-pyrazol-1-yl]propane-1,2-diol]	–	≤ 100
CCOC(=O)CCn1cc(-c2cc(C)cc(Nc3nccc(OC)n3)c2)cn1 [Example 2.3, ethyl 3-(4-{3-[(4-methoxypyrimidin-2-yl)amino]-5-methylphenyl}-1H-pyrazol-1-yl)-propanoate]	–	≤ 100
Cc1cc(Nc2nccc(C(F)F)n2)cc(-c2cnn(CC3(C)CNC(=O)C3)c2)c1 (stereo not shown) [Example 2.77, 4-{[4-(3-{[4-(difluoromethyl)pyrimidin-2-yl]amino}-5-methylphenyl)-1H-pyrazol-1-yl]methyl}-4-methylpyrrolidin-2-one]	–	≤ 100
Cc1cc(Nc2nccc(C(C)C)n2)cc(-c2cnn(C[C@H](O)C(N)=O)c2)c1 [Example 6.9, (2S)-2-hydroxy-3-[4-(3-methyl-5-{[4-(1-methyl-ethyl)pyrimidin-2-yl]-amino}phenyl)-1H-pyrazol-1-yl]propanamide]	–	≤ 100
Cc1cc(Nc2nccc(C3CC3)n2)cc(-n2cc(CCC(=O)O)cn2)c1 [Example 19.3, 3-(1-{3-[(4-cyclopropylpyrimidin-2-yl)amino]-5-methylphenyl}-1H-pyrazol-4-yl)propanoic acid]	–	≤ 100
Cc1cc(Nc2nccc(C(F)(F)F)n2)cc(-c2cnn(CC(O)C(F)(F)F)c2)c1 (racemic) [Example 3.43, 1,1,1-trifluoro-3-[4-(3-methyl-5-{[4-(trifluoromethyl)pyrimidin-2-yl]amino}phenyl)-1H-pyrazol-1-yl]propan-2-ol]	–	≤ 100
Cc1cc(Nc2nccc(C)n2)cc(-c2cnn(CC(C)(O)CO)c2)c1 (single isomer, unassigned) [Example 25.4, 2-methyl-3-(4-{3-methyl-5-[(4-methylpyrimidin-2-yl)amino]phenyl}-1H-pyrazol-1-yl)propane-1,2-diol]	–	≤ 100
Cc1cc(Nc2ncc(F)c(C(F)F)n2)cc(-c2cnn(CC3OC(=O)NC3C)c2)c1 (single isomer, unassigned) [Example 23.20, 5-{[4-(3-{[4-(difluoromethyl)-5-fluoropyrimidin-2-yl]amino}-5-methylphenyl)-1H-pyrazol-1-yl]methyl}-4-methyl-1,3-oxazolidin-2-one]	–	≤ 100
OC1(Cn2cc(-c3cccc(Nc4nccc(C(F)F)n4)c3)cn2)CCC1 [Example 29.4, 1-{[4-(3-{[4-(difluoromethyl)pyrimidin-2-yl]amino}phenyl)-1H-pyrazol-1-yl]methyl}cyclobutanol]	–	≤ 100
Cc1cc(Nc2nccc(C(F)F)n2)cc(-c2cnn(C[C@H](O)C(N)=O)c2)c1 [Example 16, (2S)-3-[4-(3-{[4-(difluoromethyl)pyrimidin-2-yl]amino}-5-methylphenyl)-1H-pyrazol-1-yl]-2-hydroxypropanamide]	2.7	≤ 100
Cc1cc(Nc2nccc(OC(C)C)n2)cc(-c2cnn(C[C@@H](O)C(=O)O)c2)c1 [Example 11.14, (2R)-2-hydroxy-3-[4-(3-methyl-5-{[4-(1-methylethoxy)-pyrimidin-2-yl]amino}-phenyl)-1H-pyrazol-1-yl]propanoic acid]	–	≤ 100
